Data from patent US11066369B2, “N-(pyridin-2-yl)pyridine-sulfonamide derivatives and their use in the treatment of disease” (Novartis AG, priority 2016, dated 2021).
Structures can show the parent of a compound that is named as a salt.

Columns and labels:
[1] = molecular target: T1, horseradish peroxidase (HRP) tagged delF508-CFTR (Homo sapiens, UniProt P13569, DEL508-508); assay: Measurement of delF508-CFTR-HRP surface expression in CFBE41o- cells; format: cell-based; settings: delF508-CFTR-HRP surface expression, CFBE41o- cells; for Emax: read-out: DelF508-CFTR-HRP Amax %; for EC50: read-out: DelF508-CFTR-HRP EC50;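 for DelF508-CFTR-HRP Amax %: percent efficacy relative to reference corrector lumacaftor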
T1 construct: expressed in transfected cells
T1 sequence (P13569 with tags, fused parts or gaps DEL508-508): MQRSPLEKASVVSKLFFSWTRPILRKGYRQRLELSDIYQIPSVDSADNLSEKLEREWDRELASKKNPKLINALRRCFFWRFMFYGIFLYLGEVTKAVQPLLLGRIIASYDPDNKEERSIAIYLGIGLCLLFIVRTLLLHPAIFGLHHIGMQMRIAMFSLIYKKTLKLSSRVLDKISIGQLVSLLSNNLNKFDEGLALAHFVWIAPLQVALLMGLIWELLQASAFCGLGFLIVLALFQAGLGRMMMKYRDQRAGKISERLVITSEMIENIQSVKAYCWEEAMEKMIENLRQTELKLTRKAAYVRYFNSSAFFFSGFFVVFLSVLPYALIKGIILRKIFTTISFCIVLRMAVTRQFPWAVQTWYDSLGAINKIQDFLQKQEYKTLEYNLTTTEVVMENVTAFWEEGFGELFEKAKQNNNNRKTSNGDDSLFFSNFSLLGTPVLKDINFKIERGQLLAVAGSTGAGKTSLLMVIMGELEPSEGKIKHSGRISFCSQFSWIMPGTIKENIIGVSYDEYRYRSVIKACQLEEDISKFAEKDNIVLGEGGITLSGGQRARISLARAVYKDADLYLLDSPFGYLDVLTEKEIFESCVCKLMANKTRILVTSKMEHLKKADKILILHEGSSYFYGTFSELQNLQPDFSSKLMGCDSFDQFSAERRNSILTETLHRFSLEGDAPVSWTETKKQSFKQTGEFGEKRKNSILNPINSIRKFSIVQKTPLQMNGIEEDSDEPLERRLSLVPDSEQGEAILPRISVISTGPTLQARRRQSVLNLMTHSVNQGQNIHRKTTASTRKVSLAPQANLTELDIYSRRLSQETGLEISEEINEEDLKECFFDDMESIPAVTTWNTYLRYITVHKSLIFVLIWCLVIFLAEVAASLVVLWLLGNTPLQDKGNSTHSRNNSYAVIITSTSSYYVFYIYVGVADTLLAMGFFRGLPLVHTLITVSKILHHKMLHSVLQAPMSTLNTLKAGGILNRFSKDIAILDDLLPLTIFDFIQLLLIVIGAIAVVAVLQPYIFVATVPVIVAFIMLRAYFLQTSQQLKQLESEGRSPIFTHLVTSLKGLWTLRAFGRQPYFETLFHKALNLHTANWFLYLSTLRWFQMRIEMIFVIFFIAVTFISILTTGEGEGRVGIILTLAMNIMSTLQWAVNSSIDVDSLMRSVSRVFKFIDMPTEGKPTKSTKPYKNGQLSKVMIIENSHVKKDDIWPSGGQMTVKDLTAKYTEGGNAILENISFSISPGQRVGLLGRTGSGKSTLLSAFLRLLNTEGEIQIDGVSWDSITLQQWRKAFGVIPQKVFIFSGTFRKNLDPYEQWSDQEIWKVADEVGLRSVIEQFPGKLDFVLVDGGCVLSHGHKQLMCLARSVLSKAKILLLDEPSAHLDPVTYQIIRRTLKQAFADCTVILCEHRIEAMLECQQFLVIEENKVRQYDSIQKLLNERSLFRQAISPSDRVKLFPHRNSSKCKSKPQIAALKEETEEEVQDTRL
Procedure, shortened: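 CFBE41o- bronchial epithelial cells stably expressing delF508-CFTR with HRP in the fourth extracellular loop; expression induced 48h with 500 ng/mL doxycycline, then compounds added (top 10 μM, 10-point 3-fold series, ≤0.5% DMSO) for 24h at 37° C. Surface HRP measured by luminescence with cell-impermeant substrate; EC50 from logistic fit of triplicates, plate-normalized to lowest concentration; efficacy also relative to a reference corrector.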

delF508-CFTR = molecular target: T2, delF508-CFTR (Homo sapiens, UniProt P13569, DEL508-508); assay: Measurement of delF508-CFTR functional activity in primary human bronchial epithelial cells (HBECs) using Multi-Transepithelial Clamp Circuit (MTECC-24) assay; format: cell-based; settings: primary CF HBECs; for MTECC24 CFHBEC- Amax %: test compound added 24h before assay plus potentiator, relative to reference combination (2 μM corrector + 0.5 μM potentiator); for EC50: test compound added 24h before assay, in the presence of potentiator, mean of at least two replicates, read-out: MTECC24 CFHBEC- EC50
T2 construct: functional activity of the CFTR channel (Chloride ion transport) in patient derived primary human bronchial epithelial cells; host or cells: patient-derived primary human bronchial epithelial cells (delF508-CFTR)
T2 sequence (P13569 with tags, fused parts or gaps DEL508-508): as above
Procedure, shortened: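 Patient-derived primary delF508-CFTR HBECs, differentiated at air-liquid interface ~2 weeks, treated basolaterally with compound for 24 h, then apical and basolateral compound in HEPES pH 7.4 assay medium. Equivalent short-circuit current (Ieq) recorded on MTECC-24 with sequential amiloride, forskolin, potentiator and INH-172; normalized to 0.1% DMSO, EC50 from curve fit.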

Row | Emax [1] [%] | EC50 [1] [µM] | MTECC24 CFHBEC- Amax % (delF508-CFTR) [%] | EC50 (delF508-CFTR) [µM] | DelF508-CFTR-HRP Amax % [1] [%] | SMILES
1 | 711 | 1.6 | 119.0 | 0.0111 |  | Cc1ccc(F)cc1-c1nc(NS(=O)(=O)c2cccc(N3CC(C)(O)C3)n2)ccc1C(F)(F)F [Example 219, N-(6-(5-fluoro-2-methylphenyl)-5-(trifluoromethyl)pyridin-2-yl)-6-(3-hydroxy-3-methylazetidin-1-yl)pyridine-2-sulfonamide]
2 | 132 | 2.81 | 46.7 | 0.0228 |  | Cc1ccccc1-c1nc(NS(=O)(=O)c2cccc(N3CCC(C(=O)O)CC3)n2)ccc1C(F)(F)F [Example 344, 1-(6-{[6-(2-methylphenyl)-5-(trifluoromethyl)pyridin-2-yl]sulfamoyl}pyridin-2-yl)piperidine-4-carboxylic Acid]
3 | 601 | 1.47 | 105.9 | 0.00085 |  | CCc1ccccc1-c1nc(NS(=O)(=O)c2cccc(N3CCC[C@H](C(=O)O)C3)n2)ccc1C(F)(F)F [Example 370, (S)-1-(6-(N-(6-(2-ethylphenyl)-5-(trifluoromethyl)pyridin-2-yl)sulfamoyl)pyridin-2-yl)piperidine-3-carboxylic Acid]
4 |  | 2.25 | 51.5 | 0.00272 |  | Cc1ccccc1-c1nc(NS(=O)(=O)c2cccc(N3CCCC(C)(C(=O)O)C3)n2)ccc1C(F)(F)F (stereo not drawn) [Example 337, 3-methyl-1-(6-{[6-(2-methylphenyl)-5-(trifluoromethyl)pyridin-2-yl]sulfamoyl}pyridin-2-yl)piperidine-3-carboxylic Acid]
5 | 269 | 3.29 | 60.9 | 0.052 |  | Cc1ccc(F)cc1-c1nc(NS(=O)(=O)c2cccc(N3CCC(O)C3C(=O)O)n2)ccc1C(F)(F)F (stereo not drawn) [Example 315, 1-(6-(N-(6-(5-fluoro-2-methylphenyl)-5-(trifluoromethyl)pyridin-2-yl)sulfamoyl)pyridin-2-yl)-3-hydroxypyrrolidine-2-carboxylic Acid]
6 |  | 1.51 | 70.1 | 0.00749 | 553.8 | Cc1ccccc1-c1nc(NS(=O)(=O)c2cccc(N[C@H]3C[C@@](C)(C(=O)O)C3)n2)ccc1C(F)(F)F [Example 356, (1s,3s)-1-methyl-3-((6-(N-(6-(o-tolyl)-5-(trifluoromethyl)pyridin-2-yl)sulfamoyl)pyridin-2-yl)amino)cyclobutanecarboxylic Acid]
7 | 607 | 1.38 | 88.1 | 0.0052 |  | O=S(=O)(Nc1ccc(C(F)(F)F)c(-c2ccccc2C2CC2)n1)c1cccc(N2CC(O)C2)n1 [Example 208, N-(6-(2-cyclopropylphenyl)-5-(trifluoromethyl)pyridin-2-yl)-6-(3-hydroxyazetidin-1-yl)pyridine-2-sulfonamide]
8 | 367 | 0.273 | 93.1 | 0.00117 |  | C[C@]1(C(=O)O)CCCN(c2cccc(S(=O)(=O)Nc3ccc(C(F)(F)F)c(-c4ccccc4C4CCC4)n3)n2)C1 [Example 373, (S)-1-(6-(N-(6-(2-cyclobutylphenyl)-5-(trifluoromethyl)pyridin-2-yl)sulfamoyl)pyridin-2-yl)-3-methylpiperidine-3-carboxylic Acid]
9 | 222 | 2.9 | 88.2 | 0.0916 |  | Cc1ccccc1-c1nc(NS(=O)(=O)c2cccc(N3CCNCC3)n2)ccc1C(F)(F)F [Example 161, 6-(piperazin-1-yl)-N-(6-(o-tolyl)-5-(trifluoromethyl)pyridin-2-yl)pyridine-2-sulfonamide (HCl Salt)]
10 | 270 | 2.82 | 57.9 | 0.0372 |  | Cc1ccccc1-c1nc(NS(=O)(=O)c2cccc(N3CC[C@H](N)C3)n2)ccc1C(F)(F)F [Example 120, (S)-6-(3-aminopyrrolidin-1-yl)-N-(6-(o-tolyl)-5-(trifluoromethyl)pyridin-2-yl)pyridine-2-sulfonamide Hydrochloride]
11 | 485 | 3.22 | 89.6 | 0.0878 |  | Cc1ccccc1-c1nc(NS(=O)(=O)c2cccc(N3CCN(CCO)CC3)n2)ccc1C(F)(F)F [Example 182, 6-(4-(2-hydroxyethyl)piperazin-1-yl)-N-(6-(o-tolyl)-5-(trifluoromethyl)pyridin-2-yl)pyridine-2-sulfonamide Hydrochloride]

The next lines start with the compound.

Row | SMILES | Emax [1] [%] | EC50 [1] [µM] | MTECC24 CFHBEC- Amax % (delF508-CFTR) [%] | EC50 (delF508-CFTR) [µM] | DelF508-CFTR-HRP Amax % [1] [%]
12 | CCOC(=O)C1(C)CCN(c2cccc(S(=O)(=O)Nc3ccc(Cl)c(-c4cc(F)ccc4C)n3)n2)CC1 [Example 256, ethyl 1-(6-(N-(5-chloro-6-(5-fluoro-2-methylphenyl)pyridin-2-yl)sulfamoyl)pyridin-2-yl)-4-methylpiperidine-4-carboxylate] | 662 | 2.77 | 52.6 | 0.0029 | 
13 | CCOC(=O)C1(C)CCN(c2cccc(S(=O)(=O)Nc3ccc(Cl)c(-c4c(C)cccc4C)n3)n2)CC1 [Example 249, ethyl 1-(6-(N-(5-chloro-6-(2,6-dimethylphenyl)pyridin-2-yl)sulfamoyl)pyridin-2-yl)-4-methylpiperidine-4-carboxylate] |  | 1.53 | 79.6 | 0.0067 | 
14 | Cc1c(F)cccc1-c1nc(NS(=O)(=O)c2cccc(N)n2)ccc1Cl [Example 12, 6-amino-N-(5-chloro-6-(3-fluoro-2-methylphenyl)pyridin-2-yl)pyridine-2-sulfonamide] | 555 | 1.32 | 85.2 | 0.0097 | 
15 | CC1(C(=O)O)CCN(c2cccc(S(=O)(=O)Nc3ccc(Cl)c(-c4cccc(F)c4Cl)n3)n2)CC1 [Example 245, 1-(6-(N-(5-chloro-6-(2-chloro-3-fluorophenyl)pyridin-2-yl)sulfamoyl)pyridin-2-yl)-4-methylpiperidine-4-carboxylic Acid] | 246 | 3.44 | 48.0 | 0.0431 | 
16 | Cc1ccccc1-c1nc(NS(=O)(=O)c2ccc(C)c(N)n2)ccc1C(F)(F)F [Example 36, 6-amino-5-methyl-N-(6-(o-tolyl)-5-(trifluoromethyl)pyridin-2-yl)pyridine-2-sulfonamide] | 390 | 2.1 | 67.6 | 0.0259 | 
17 | O=S(=O)(Nc1ccc(Cl)c(-c2cccc(F)c2Cl)n1)c1cccc(N2CC(O)C2)n1 [Example 229, N-(5-chloro-6-(2-chloro-3-fluorophenyl)pyridin-2-yl)-6-(3-hydroxyazetidin-1-yl)pyridine-2-sulfonamide] | 341 | 4.29 | 69.0 | 0.0533 | 
18 | Cc1cccc(C)c1-c1nc(NS(=O)(=O)c2cccc(N3CCN[C@H](CO)C3)n2)ccc1C(F)(F)F [Example 173, (S)—N-(6-(2,6-dimethylphenyl)-5-(trifluoromethyl)pyridin-2-yl)-6-(3-(hydroxymethyl)piperazin-1-yl)pyridine-2-sulfonamide Hydrochloride] | 682 | 2.37 | 61.4 | 0.0769 | 
19 | Cc1ccc(F)cc1-c1nc(NS(=O)(=O)c2cccc(N3CCN4C[C@@H](F)C[C@@H]4C3)n2)ccc1Cl [Example 134, N-(5-chloro-6-(5-fluoro-2-methylphenyl)pyridin-2-yl)-6-((7S,8aR)-7-fluorohexahydropyrrolo[1,2-a]pyrazin-2(1H)-yl)pyridine-2-sulfonamide] | 906 | 1.98 | 112.7 | 0.019 | 
20 | Cc1ccccc1-c1nc(NS(=O)(=O)c2cccc(N[C@H]3C[C@H](O)C3)n2)ccc1C(F)(F)F [Example 284, N-[6-(2-methylphenyl)-5-(trifluoromethyl)pyridin-2-yl]-6-{[(1r,3r)-3-hydroxycyclobutyl]amino}pyridine-2-sulfonamide] | 493 | 2.28 | 85.2 | 0.0009 | 
21 | Cc1ccccc1-c1nc(NS(=O)(=O)c2cccc(N[C@@H]3COCC[C@@H]3O)n2)ccc1C(F)(F)F (single isomer, unassigned) [Example 281] | 680 | 2.01 | 85.9 | 0.0037 | 
22 | Cc1c(C#N)cccc1-c1nc(NS(=O)(=O)c2cccc(N)n2)ccc1Cl [Example 67, 6-amino-N-(5-chloro-6-(3-cyano-2-methylphenyl)pyridin-2-yl)pyridine-2-sulfonamide] | 214 | 1.84 | 45.8 | 0.114 | 
23 | COc1ccc(Cl)c(-c2nc(NS(=O)(=O)c3cccc(N4CC(O)C4)n3)ccc2Cl)c1 [Example 228, N-(5-chloro-6-(2-chloro-5-methoxyphenyl)pyridin-2-yl)-6-(3-hydroxyazetidin-1-yl)pyridine-2-sulfonamide] | 405 | 2.99 | 87.0 | 0.0381 | 
